The values that follow come from PubChem BioAssay (NCI).

Each structure is given as a SMILES string.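 Cultured in 96-well plates, cells were exposed to test compound for 48 hours across five concentrations. The concentration for full growth arrest is given as TGI.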

Test systems include A549 NSCLC; COLO 205 colon; HCT-116 colon; HCT-15 colon; HS 578T breast; KM12 colon; LOX IMVI melanoma; M14 melanoma; MOLT-4 leukemia; NCI-H226 lung; OVCAR-8 ovarian; PC-3 prostate; RPMI-8226 leukemia; RXF 393 renal; SF-268 CNS; SF-295 CNS; SK-MEL-5 melanoma; SNB-75 CNS; UACC-62 melanoma; UO-31 renal.
What all share (experiment): NCI tumour cell line growth inhibition, 48 h

In the case of `CCN1CCN(c2nc3ccccc3c3c2CCOc2ccccc2-3)CC1`, the TGI is more than 69.3 µM in the assay with A549 NSCLC; 37.2 µM with COLO 205 colon; more than 59 µM with HCT-116 colon; 40.1 µM in the assay with HCT-15 colon; more than 59.2 µM in the assay with HS 578T breast; more than 56 µM in the assay on KM12 colon. Further, the TGI is 34.1 µM in the assay with LOX IMVI melanoma; 38.4 µM with M14 melanoma; more than 56 µM in the assay on MOLT-4 leukemia; more than 77.9 µM with NCI-H226 lung; more than 75.5 µM in the assay on OVCAR-8 ovarian; more than 90.9 µM in the assay with PC-3 prostate. The TGI is 50 µM in the assay on RPMI-8226 leukemia; more than 65.1 µM in the assay on RXF 393 renal; more than 100 µM in the assay on SF-268 CNS; more than 63 µM in the assay on SF-295 CNS; 36.7 µM in the assay with SK-MEL-5 melanoma; more than 62.6 µM in the assay with SNB-75 CNS. The TGI in the assay on UACC-62 melanoma was 34.7 µM; in the assay on UO-31 renal, more than 66 µM.
For `CCOC(=O)c1cc2c3ccn(Cc4ccccc4)c3c3c(C)[nH]oc3c2n1`, the TGI in the assay with A549 NSCLC, with COLO 205 colon, in the assay with HCT-116 colon, in the assay on HCT-15 colon, with HS 578T breast and in the assay with KM12 colon was more than 100 µM in each case. Also, the TGI in the assay with LOX IMVI melanoma, in the assay on M14 melanoma, with MOLT-4 leukemia, in the assay on NCI-H226 lung, with OVCAR-8 ovarian and in the assay on PC-3 prostate was more than 100 µM in each case. Also, the TGI with RPMI-8226 leukemia, with RXF 393 renal, with SF-268 CNS, with SF-295 CNS, with SK-MEL-5 melanoma and in the assay with SNB-75 CNS was more than 100 µM throughout. The TGI in the assay on UACC-62 melanoma and in the assay on UO-31 renal was more than 100 µM each time.
On to `O=c1c2ccccc2nc(Cc2nc(-c3ccc(Cl)cc3)cs2)n1-c1ccc(Cl)cc1`, for which the TGI in the assay on A549 NSCLC, with COLO 205 colon, in the assay with HCT-116 colon, in the assay on HCT-15 colon, in the assay with HS 578T breast and with KM12 colon was more than 100 µM in each case. For the same molecule, the TGI in the assay on LOX IMVI melanoma, in the assay with M14 melanoma, in the assay with MOLT-4 leukemia, with NCI-H226 lung, in the assay with OVCAR-8 ovarian and in the assay with PC-3 prostate was more than 100 µM in each case. Besides, the TGI in the assay on RPMI-8226 leukemia was 83.9 µM; in the assay on RXF 393 renal, more than 100 µM; in the assay with SF-268 CNS, more than 100 µM; in the assay with SF-295 CNS it was more than 100 µM; in the assay on SK-MEL-5 melanoma it was more than 100 µM; in the assay on SNB-75 CNS, more than 100 µM. The TGI in the assay with UACC-62 melanoma and in the assay on UO-31 renal was more than 100 µM throughout.
Consider `O=C(NC(Cc1ccccc1)(Cc1ccc(O)cn1)C(=O)O)c1ccccc1` (stereo not given), for which the TGI in the assay on A549 NSCLC, with COLO 205 colon, with HCT-116 colon, with HCT-15 colon, in the assay with HS 578T breast and in the assay with KM12 colon was more than 100 µM throughout. Also, the TGI with LOX IMVI melanoma, with M14 melanoma, in the assay on MOLT-4 leukemia, with NCI-H226 lung, in the assay with OVCAR-8 ovarian and in the assay with PC-3 prostate was more than 100 µM throughout. The TGI in the assay on RPMI-8226 leukemia, in the assay on RXF 393 renal, in the assay on SF-268 CNS, in the assay on SF-295 CNS, in the assay on SK-MEL-5 melanoma and with SNB-75 CNS was more than 100 µM each time. Also, the TGI with UACC-62 melanoma and with UO-31 renal was more than 100 µM in each case.
`CCOC(=O)c1cn2c(n1)sc1cc(Cl)ccc12`: the TGI with A549 NSCLC was more than 100 µM; in the assay with COLO 205 colon, 60.8 µM; in the assay on HCT-116 colon, 13.6 µM; with HCT-15 colon, more than 100 µM; in the assay on HS 578T breast, more than 100 µM; with KM12 colon it was more than 100 µM. Besides, the TGI in the assay on LOX IMVI melanoma, in the assay with M14 melanoma, in the assay with MOLT-4 leukemia, in the assay with NCI-H226 lung, in the assay with OVCAR-8 ovarian and in the assay with PC-3 prostate was more than 100 µM in each case. In addition, the TGI in the assay with RPMI-8226 leukemia, in the assay on RXF 393 renal, with SF-268 CNS, in the assay with SF-295 CNS, with SK-MEL-5 melanoma and in the assay on SNB-75 CNS was more than 100 µM in each case. In addition, the TGI with UACC-62 melanoma and in the assay with UO-31 renal was more than 100 µM each time.
With `COc1cc(-c2nc3ccccn3c2/N=C/c2cc(Br)cc(Br)c2O)ccc1O`, the TGI was more than 100 µM with A549 NSCLC; 74.3 µM in the assay on COLO 205 colon; 34.7 µM with HCT-116 colon; 44.8 µM in the assay on HCT-15 colon; 83.8 µM with HS 578T breast; 67.2 µM in the assay with KM12 colon. Also, the TGI is 64.9 µM in the assay with LOX IMVI melanoma; 38.5 µM in the assay on M14 melanoma; 73.7 µM with MOLT-4 leukemia; 70.9 µM in the assay on NCI-H226 lung; 61.8 µM in the assay with OVCAR-8 ovarian; 65.8 µM in the assay with PC-3 prostate. Moreover, the TGI with RPMI-8226 leukemia is more than 100 µM; in the assay on RXF 393 renal, more than 100 µM; in the assay on SF-268 CNS it was 39.7 µM; with SF-295 CNS, 50 µM; in the assay with SK-MEL-5 melanoma it was 72.4 µM; in the assay with SNB-75 CNS, 66.6 µM. Also, the TGI in the assay with UACC-62 melanoma was determined as 72.4 µM; with UO-31 renal, 30.6 µM.
